Data: ChEMBL document CHEMBL5032530, “Discovery of Benzocyclic Sulfone Derivatives as Potent CXCR2 Antagonists for Cancer Immunotherapy” (J Med Chem, 2021)
Calls of active or inactive are those of the source. The rule behind the calls is not given here.

Columns and labels:
[1] = AUC (0 to infinity) in ICR mouse at 3 mg/kg, iv measured upto 48 hrs; type: ADME, organism-based; design: route intravenous, dose 3 mg/kg, time <=48; conditions: in vivo
[2] = Half life in ICR mouse at 30 mg/kg, po measured upto 48 hrs; type: ADME, organism-based; conditions: ICR, in vivo
MIA PaCa-2 = assay: Cytotoxicity against human MIA PaCa-2 cells assessed as reduction in cell viability measured after 72 hrs by CCK8 assay; type: cell-based; conditions: MIA PaCa-2, 72 h
Panc02 [3] = assay: Antitumour activity against mouse Panc02 cells xenografted in mouse assessed as upregulation of infiltration of CD3+ T cell into tumor tissue treated po twice a day measured after 15 days by immunohistochemical analysis; type: functional, organism-based; conditions: dose 10-30 mg/kg, time 15.0 day
Neutrophil = assay: In vivo antagonist activity at CXCR2 in carrageenan-induced C57BL/6 mouse air pouch inflammation model assessed as reduction in neutrophil infiltration into air pouch at 30 mg/kg, po bid administered after 3 days of carrageenan treatment for 3 days; type: functional, organism-based; conditions: time 3.0 day
Panc02 [4] = assay: Antitumour activity against mouse Panc02 cells xenografted in mouse assessed as reduction in infiltration of granulocytic MDSCs into tumor tissue at 3 mg/kg, po bid measured after 15 days by flow cytometry analysis; type: functional, organism-based; conditions: time 15.0 day
[5] = Cytotoxicity against human PBMC cells assessed as reduction in cell viability measured after 72 hrs by CCK8 assay; type: cell-based
Panc02 [6] = assay: Antitumour activity against mouse Panc02 cells xenografted in mouse assessed as tumour growth inhibition at 3 mg/kg, po bid […]; type: functional; conditions: read-out: TGI
Panc02 [7] = assay: Antitumour activity against mouse Panc02 cells xenografted in mouse assessed as change in CD11b expressing immune cells infiltration into tumor tissue using LY6C antibody at 10 mg/kg, po bid measured after 15 days by flow cytometry analysis (reference value: 20.5%); type: functional; conditions: time 15 day
Panc02 [8] = assay: Antitumour activity against mouse Panc02 cells xenografted in mouse assessed as change in CD11b expressing immune cells infiltration into tumor tissue using LY6G antibody at 10 mg/kg, po bid measured after 15 days by flow cytometry analysis (reference value: 29.7%); type: functional; conditions: time 15 day
[9] = Clearance in ICR mouse at 30 mg/kg, po measured upto 48 hrs; type: ADME, organism-based; conditions: ICR, in vivo
Panc02 [10] = assay: Antitumour activity against mouse Panc02 cells xenografted in mouse assessed as change in CD11b expressing immune cells infiltration into tumor tissue using LY6C antibody at 3 mg/kg, po bid measured after 15 days by flow cytometry analysis (reference value: 20.5%); type: functional; conditions: time 15 day
Mus musculus = assay: Effect on granulocytic MDSCs level in mouse xenografted with […] cells at 10 to 30 mg/kg, po bid measured after 15 days by immunohistochemical analysis; type: ADME, organism-based; conditions: in vivo, 360 h, dose 10-30 mg/kg, time 15 day
Panc02 [11] = assay: Antitumour activity against mouse Panc02 cells xenografted in mouse assessed as reduction in infiltration of granulocytic MDSCs into tumor tissue at 30 mg/kg, po bid measured after 15 days by immunohistochemical analysis; type: functional, organism-based; conditions: time 15.0 day
[12] = AUC (0 to infinity) in ICR mouse at 30 mg/kg, po measured upto 48 hrs; type: ADME, organism-based; design: route oral, dose 30 mg/kg, time <=48; conditions: ICR, in vivo
Panc02 [13] = assay: Antitumour activity against mouse Panc02 cells xenografted in mouse assessed as change in CD11b expressing immune cells infiltration into tumor tissue using LY6G antibody at 3 mg/kg, po bid measured after 15 days by flow cytometry analysis (reference value: 29.7%); type: functional; conditions: time 15 day
Panc02 [14] = assay: Antitumour activity against mouse Panc02 cells xenografted in mouse assessed as change in CD45 expressing immune cells infiltration into tumor tissue at 10 mg/kg, po bid measured after 15 days by flow cytometry analysis (reference value: 2.3%); type: functional; conditions: time 15 day
PANC-1 = assay: Cytotoxicity against human PanC-1 cells assessed as reduction in cell viability measured after 72 hrs by CCK8 assay; type: cell-based; conditions: PANC-1, 72 h
Panc02 [15] = assay: Antitumour activity against mouse Panc02 cells xenografted in mouse assessed as tumour growth inhibition at 10 mg/kg, po bid […]; type: functional; conditions: read-out: TGI
SW1990 = assay: Cytotoxicity against human SW1990 cells assessed as reduction in cell viability measured after 72 hrs by CCK8 assay; type: cell-based; conditions: SW1990, 72 h
[16] = Tmax in ICR mouse at 3 mg/kg, iv measured upto 48 hrs; type: ADME, organism-based; conditions: in vivo
[17] = Cmax in ICR mouse at 30 mg/kg, po measured upto 48 hrs; type: ADME, organism-based; design: route oral, dose 30 mg/kg, time <=48; conditions: in vivo
Panc02 [18] = assay: Antitumour activity against mouse Panc02 cells xenografted in mouse assessed as change in CD45 expressing immune cells infiltration into tumor tissue at 3 mg/kg, po bid measured after 15 days by flow cytometry analysis (reference value: 27.4%); type: functional; conditions: time 15 day
[19] = target: T1, C-X-C chemokine receptor type 2 (Homo sapiens, UniProt P25025); assay: Displacement of [I-125]-interleukin-8 against human recombinant CXCR2 expressed in CHO-K1 cells incubated for 60 mins by radio ligand binding assay; type: cell-based
T1 sequence (P25025 whole entry): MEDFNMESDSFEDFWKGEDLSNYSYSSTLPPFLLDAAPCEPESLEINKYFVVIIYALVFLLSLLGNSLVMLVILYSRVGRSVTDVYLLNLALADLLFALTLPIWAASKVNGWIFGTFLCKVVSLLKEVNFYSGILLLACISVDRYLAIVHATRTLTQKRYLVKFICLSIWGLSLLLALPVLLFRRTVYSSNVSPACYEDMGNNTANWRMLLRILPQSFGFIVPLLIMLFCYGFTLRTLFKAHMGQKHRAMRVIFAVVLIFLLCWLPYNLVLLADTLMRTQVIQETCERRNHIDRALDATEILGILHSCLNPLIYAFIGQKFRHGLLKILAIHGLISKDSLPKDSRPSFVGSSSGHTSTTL

[20] = Half life in ICR mouse at 3 mg/kg, iv measured upto 48 hrs; type: ADME, organism-based; conditions: in vivo
BXPC-3 = assay: Cytotoxicity against human BxPC3 cells assessed as reduction in cell viability measured after 72 hrs by CCK8 assay; type: cell-based; conditions: BXPC-3, 72 h
[21] = Clearance in ICR mouse at 3 mg/kg, iv measured upto 48 hrs; type: ADME, organism-based; conditions: in vivo
Panc02 [22] = assay: Antitumour activity against mouse Panc02 cells xenografted in mouse assessed as change in CD45 expressing immune cells infiltration into tumor tissue at 3 mg/kg, po bid measured after 15 days by flow cytometry analysis (reference value: 2.3%); type: functional; conditions: time 15 day
[23] = Cmax in ICR mouse at 3 mg/kg, iv measured upto 48 hrs; type: ADME, organism-based; design: route intravenous, dose 3 mg/kg, time <=48; conditions: in vivo
[24] = Tmax in ICR mouse at 30 mg/kg, po measured upto 48 hrs; type: ADME, organism-based; conditions: in vivo
[25] = Oral bioavailability in ICR mouse at 30 mg/kg measured upto 48 hrs; type: ADME, organism-based; conditions: in vivo
[26] = Apparent volume of distribution in ICR mouse at 30 mg/kg, po measured upto 48 hrs; type: ADME, organism-based; conditions: in vivo
[27] = Apparent volume of distribution in ICR mouse at 3 mg/kg, iv measured upto 48 hrs; type: ADME, organism-based; conditions: in vivo, read-out: Vz
Panc02 [28] = assay: Cytotoxicity against mouse Panc02 cells assessed as reduction in cell viability measured after 72 hrs by CCK8 assay; type: cell-based; conditions: panc02, 72 h
Panc02 [29] = assay: Antitumour activity against mouse Panc02 cells xenografted in mouse assessed as reduction in infiltration of neutrophils into tumor tissue at 3 mg/kg, po bid measured after 15 days by flow cytometry analysis; type: functional, organism-based; conditions: time 15.0 day
Panc02 [30] = assay: Antitumour activity against mouse Panc02 cells xenografted in mouse assessed as reduction in infiltration of neutrophils into tumor tissue at 30 mg/kg, po bid measured after 15 days by immunohistochemical analysis; type: functional, organism-based; conditions: time 15.0 day
Panc02 [31] = assay: Antitumour activity against mouse Panc02 cells xenografted in mouse assessed as change in Gr1 expressing immune cells infiltration into tumor tissue at 10 mg/kg, po bid measured after 15 days by flow cytometry analysis (reference value: 27.4%); type: functional; conditions: time 15 day
[32] = target: T1, C-X-C chemokine receptor type 2; assay: Antagonist activity at human CXCR2 expressed in HEK293 cells assessed as inhibition of CXCL8-induced beta-arrestin recruitment preincubated for 30 mins followed by addition of agonist incubated for 90 mins by beta arrestin assay; type: functional, cell-based
[33] = AUC (0 to t) in ICR mouse at 30 mg/kg, po measured upto 48 hrs; type: ADME, organism-based; design: route oral, dose 30 mg/kg, time <=48; conditions: in vivo
[34] = AUC (0 to t) in ICR mouse at 3 mg/kg, iv measured upto 48 hrs; type: ADME, organism-based; design: route intravenous, dose 3 mg/kg, time <=48; conditions: in vivo

Question: What does the source list for `Cc1c(F)cccc1NC(=O)Nc1ccc2c(c1O)S(=O)(=O)CC=C2`?
Answer: AUC(0-inf) [1]: 1550 ng·h/mL; half-life [2]: 3.83 h; IC50 (MIA PaCa-2): > 10 µM; Activity (Panc02 [3]): Dose-Dependent Effect; Activity (Neutrophil): Active; Activity (Panc02 [4]): Active; IC50 [5]: > 10 µM; inhibition in vivo at 3 mg/kg (Panc02 [6]): 58.2%; Activity (Panc02 [7]): 17.8%; Activity (Panc02 [8]): 8.11%; CL/F [9]: 143 mL/min/kg; Activity (Panc02 [10]): 15%; Activity (Mus musculus): Non-Toxic; Activity (Panc02 [11]): Active; AUC(0-inf) [12]: 3570 ng·h/mL; Activity (Panc02 [13]): 15.8%; Activity (Panc02 [14]): 40.2%; IC50 (PANC-1): > 10 µM; inhibition in vivo at 10 mg/kg (Panc02 [15]): 66.7%; IC50 (SW1990): > 10 µM; Tmax [16]: 3 min; Cmax [17]: 419 ng/mL; Activity (Panc02 [18]): 12.7%; Ki [19]: 0.44 µM; half-life [20]: 3.39 h; IC50 (BXPC-3): > 10 µM; clearance [21]: 32.8 mL/min/kg; Activity (Panc02 [22]): 34.9%; Cmax [23]: 5120 ng/mL; Tmax [24]: 3.42 h; bioavailability [25]: 23.2%; Vz [26]: 47.39 L/kg; Vd [27]: 9.82 L/kg; Activity (Panc02 [28]): Non-Toxic; Activity (Panc02 [29]): Active; Activity (Panc02 [30]): Active; Activity (Panc02 [31]): 7.6%; IC50 [32]: 0.034 µM; AUC(0-t) at 48 h [33]: 3510 ng·h/mL; AUC(0-t) at 48 h [34]: 1510 ng·h/mL
